A short description of data set [1]: Inhibition of Influenza B virus wild type neuraminidase.
Another data set concerns Influenza A virus. In words: Antiviral activity against Influenza A virus infected in MDCK cells after 72 hrs by yield reduction assay. It counts as functional, organism-based.
Data set [2] is described as follows: Cytotoxicity against MDCK cells after 72 hrs by XTT assay. The class given is cell-based, Canis lupus familiaris. The note with it: dog. (In general: Tetrazolium assays rely on reduction of a dye to a coloured formazan, in cell work by metabolically active cells.)

pEC50, pIC50: −log10 of the molar value.

`CCOC(=O)c1cn(CC)c2ccc(-n3cc(C4=CCCCC4)nn3)cc2c1=O` gave a pIC50 in data set [1] of 4.66. In addition, in the data set with Influenza A virus, the pEC50 was 6.70. Moreover, in data set [2], the CC50 at 72 h is 566 µM.
In the same order, the values of `CCOC(=O)C1=C[C@@H](OC(CC)CC)[C@H](NC(C)=O)[C@@H](N)C1` [OSELTAMIVIR] are 4.80, 7.52 and 321 µM.

In general, pIC50 refers to the negative decadic logarithm of the IC50, by convention in mol/L. By pEC50 is commonly meant the negative decadic logarithm of the EC50, by convention in mol/L. Lower therefore signals a large EC50. As a reminder, the CC50 is the concentration that lowers cell viability or growth by half.
